Measurements as given in patent publication US9718811B2, “(S)-enantiomer of mepazine” (Helmholtz Zentrum München—Deutsches Forschungszentrum für …, priority 2013, dated 2017).
“Also recorded” adds a separate entry of the source.

Tests used:
[1] = Racemization check by chiral HPLC; assay type: physicochemical
Procedure: Enantiomeric purity of the thioridazine and mepazine enantiomers was determined by comparison to commercially available racemates using a ChiralPak IA 250×4.6 mm (L×I.D.) […] tris(3,5-dimethylphenylcarbamate) column. For thioridazine an isocratic gradient of 1% ethanol in hexane containing 0.1% diethylamine modifier was used. In the case of mepazine an isocratic gradient of 1% isopropanol in hexane containing 0.1% diethylamine modifier was used. Both were run at 1 ml/min.
(S)-Mepazine provided a single peak by Chiral HPLC under conditions in which the individual enantiomers are resolved.

[2] = CIA (collagen induced arthritis) model; assay type: in vivo, DBA1/J mice; settings: paw histopathology
[3] = tested on: ABC DLBCL cell-line OCI-Ly10; assay: DLBCL xenograft model, OCI-Ly10 tumor; assay type: in vivo, mice (NSG); settings: 6 or 12 mg/kg IP once daily, started 13 days after transplantation
Procedure: (§1) Tumors were engrafted in 6- to 8-week-old female NOD.Cg-Prkdc^scid I12rg^tm1Wj1/SzJ (NSG) mice by subcutaneous injection of 4×10^6 tumor cells (OCI-Ly10 or Su-DHL-6) resuspended in matrigel (BD). Both tumors were engrafted simultaneously on opposite flanks of individual mice, with four mice for each treatment group. […] A daily application of 150 or 300 μg of compound per animal (˜25 g) was used, corresponding to approximately 6 or 12 mg/kg, respectively. The tumor size was measured every other day after visual appearance using a caliper and calculated as square millimeters (length×width). Mice were sacrificed when the tumors were above 250 mm^2 and statistical data was analyzed with a two-way ANOVA test.
(§2) In the DLBCL xenograft model NSG mice were subcutaneously injected with the MALT1-dependent ABC DLBCL cell line OCI-Ly10 and the MALT1-independent GCB DLBCL cell-line Su-DHL6 in opposing flanks of individual mice.

[4] = tested on: GCB DLBCL cell-line Su-DHL-6; assay: DLBCL xenograft model, Su-DHL-6 control tumor; assay type: in vivo, mice (NSG); settings: 6 or 12 mg/kg IP once daily, started 13 days after transplantation
Procedure: as §1, §2

[5] = Chronic progressive EAE (experimental allergic encephalomyelitis) model; assay type: in vivo, C57Bl/6 mice
Procedure: For the EAE model first 1 mg/ml MOG35-55 peptides (MOG: myelin/oligodendrocyte glycoprotein; accession no. AAF74786) were emulsified 1:1 in Complete Freund's Adjuvant (CFA, incl. 5 mg/ml heat-killed M. tuberculum H37RA). On day one female C57Bl/6 mice (8-10 weeks old) were subcutaneously treated with 0.1 ml of MOG/CFA (0.1 mg MOG/0.25 mg CFA per mouse) in both flanks. In addition 0.2 ml pertussis toxin ([…]) was intraperitoneally injected immediately after (200 ng per mouse), followed by a second injection the day after. […] The clinical score of the mice was determined according to the following parameters: Score 0=no obvious signs of motor dysfunction in mice compared to non-immunized control; 0.5—distal tail limpness; 1=limp or floppy tail; 2=limp tail and weakness in hind legs; 3=limp tail and complete paralysis of hind legs OR limp tail with paralysis of one front and one hind leg; 4=limp tail, complete hind leg and partial front leg paralysis; 5=complete hind and complete front leg paralysis, no movement around cage OR mouse is spontaneously rolling in cage OR mouse found dead due to paralysis.
At the end of the study mice were euthanized and blood serum and also the brain and the spinal cord was collected for a histopathology analysis. Here foci of inflammatory cell infiltrate (at least 50 μm) into the spinal cord were counted and scored using the following criteria: 0=normal; 0.5 very minimal; 1=minimal, 2-4 generally less than 100 μm width/length; 2=mild, 5-7 small discreet foci; 3=moderate, 8-10 small plus larger coalescing areas; 4=marked, 11-13 small plus larger coalescing areas; 5=severe, often multiple coalescing >13. Percent area of white matter that bad demyelination, edema, dilated axons was estimated and used to determine a score using the following criteria: 0=normal; 1=minimal, 1-5% of total are affected; 2=mild, 5-25% of total area affected; 3=moderate, 26-50% of total area affected; 4=marked, 51-75% of total area affected; 5=>75% of total area affected.

GST-MALT1325-760 = biological target: T1, GST-MALT1325-760 (Homo sapiens, UniProt Q9UDY8); assay: MALT1 paracaspase activity (fluorogenic cleavage) assay
T1 sequence (Q9UDY8 325-760 limits assumed): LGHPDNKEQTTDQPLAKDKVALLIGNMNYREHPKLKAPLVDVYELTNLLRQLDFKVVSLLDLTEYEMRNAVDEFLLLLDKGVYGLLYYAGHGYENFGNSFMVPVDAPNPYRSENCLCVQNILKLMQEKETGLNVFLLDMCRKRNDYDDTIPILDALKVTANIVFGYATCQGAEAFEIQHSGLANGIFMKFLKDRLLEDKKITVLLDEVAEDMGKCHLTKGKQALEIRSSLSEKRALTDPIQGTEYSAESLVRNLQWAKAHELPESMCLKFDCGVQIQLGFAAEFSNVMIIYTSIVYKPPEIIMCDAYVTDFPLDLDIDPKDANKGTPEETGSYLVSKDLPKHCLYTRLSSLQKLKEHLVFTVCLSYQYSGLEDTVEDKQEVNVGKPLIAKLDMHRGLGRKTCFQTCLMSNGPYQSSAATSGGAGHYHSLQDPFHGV

human MALT1 (L339-R719) = biological target: T2, human MALT1 (L339-R719) (Homo sapiens, UniProt Q9UDY8); assay: Tryptophan fluorescence quenching assay; settings: monomeric MALT1 (L339-R719), quenching of W580, 20° C.; FIG. 2a/b; read-out: binding affinity KD
T2 construct: human MALT1 (L339-R719) was used; only implied by the Ni-NTA purification; made in house; host or cells: Escherichia coli Rosetta (DE3)
T2 sequence (Q9UDY8 339-719): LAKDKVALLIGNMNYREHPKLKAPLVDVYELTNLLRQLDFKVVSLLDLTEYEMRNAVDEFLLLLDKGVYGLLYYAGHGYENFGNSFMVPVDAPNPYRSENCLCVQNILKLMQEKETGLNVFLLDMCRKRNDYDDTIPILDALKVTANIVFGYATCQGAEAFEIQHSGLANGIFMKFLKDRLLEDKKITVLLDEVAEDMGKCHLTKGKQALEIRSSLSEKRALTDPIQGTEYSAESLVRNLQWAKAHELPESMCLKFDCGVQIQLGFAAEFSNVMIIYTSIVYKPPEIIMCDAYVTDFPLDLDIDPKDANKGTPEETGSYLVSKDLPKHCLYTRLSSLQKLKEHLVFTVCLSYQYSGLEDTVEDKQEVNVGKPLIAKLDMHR
Procedure: For crystallization and tryptophan fluorescence quenching human MALT1 (L339-R719) was used.
Fluorescence quenching of tryptophan W580 was measured with the fluorescence spectrometer (FluoroMax-P, HORIBA Jobin Yvon) at an extinction wavelength of 285 nm and an emission wavelength of 329 nm. The measurement was performed by 2 μl titration steps of 400 μM, 800 μM, 4 mM, 8 mM thioridazine and mepazine stock solutions in H2O against 0.5 μM monomeric MALT1 (L339-R719) in 1.6 ml assay buffer (5 mM Hepes pH 7.0, 300 mM NaCl) at 20° C. The quenching assay of thioridazine and mepazine enantiomers was performed equally to racemates measurements.
For this assay advantage was taken from the fact that W580 is the only tryptophan residue in the MALT1Casp-Ig3 construct and is in close proximity to the bound tricyclic moiety of the phenothiazine derivatives.

[6] = IP 8 mg/kg twice daily, histopathology, 8 mg/kg
[7] = IC50 (MALT1 cleavage assay), wt GST-MALT1325-760, Ac-LRSR-AMC substrate, FIG. 2c/d
[8] = IC50 on recombinant MALT1 (fluorogenic MALT1 cleavage assay), FIG. 3a/b

racemization on standing or in solution [1] | IC50 (GST-MALT1325-760; [7]) [µM] | IC50 (GST-MALT1325-760; [8]) [µM] | Kd (human MALT1 (L339-R719)) [µM] | Structure (SMILES) | CIA-related inflammation [2] | bone resorption [2] | cartilage damage [2] | pannus formation [2] | growth of the ABC DLBCL (OCI-Ly10) tumor [3] | growth of the GCB DLBCL (Su-DHL-6) control tumor [4] | EAE induced weight loss ([5]; IP 8 mg/kg twice daily) | EAE severity (clinical score) ([5]; IP 8 mg/kg twice daily (16 mg/kg), started at clinical score of around 1) | demyelination in the spinal cord [5, 6] | inflammatory foci formation in the spinal cord [5, 6]
No racemization |  |  |  | CN1CCC[C@H](CN2c3ccccc3Sc3ccccc32)C1 [(S)-mepazine, 10-{[(3S)-1-methylpiperidin-3-yl]methyl}-10H-phenothiazine] | strong reduction; also recorded: decrease | strong reduction; also recorded: decrease | strong reduction; also recorded: decrease | strong reduction; also recorded: decrease | selective growth reduction | not affected | reduced EAE induced weight loss | reduction of EAE severity | reduced; also recorded: inhibition | reduced; also recorded: inhibition
 | 5 ± 1.5 | 4.99 ± 1.52 | 23 ± 0.6 | CSc1ccc2c(c1)N(CCC1CCCCN1C)c1ccccc1S2 (single isomer, unassigned) [(R)-thioridazine] |  |  |  |  |  |  |  |  |  | 
 | 4.8 ± 0.9 | 4.83 ± 0.88 | 21.3 ± 0.5 | CSc1ccc2c(c1)N(CCC1CCCCN1C)c1ccccc1S2 (single isomer, unassigned) [(S)-thioridazine] |  |  |  |  |  |  |  |  |  | 
